Assays:
hEP2/Gqs5 = molecular target: T1, hEP2/Gqs5 (Homo sapiens, UniProt P43116); assay: EP2 FLIPR calcium signal study; type: cell-based; settings: HEK-293(EBNA) cells expressing hEP2/Gqs5; unit inferred
T1 construct: expressed in transfected cells; host or cells: HEK-293(EBNA)
Procedure: (§1) Methods for FLIPR™ Studies
(§2) HEK-293(EBNA) cells, stably expressing one type or subtype of recombinant human prostaglandin receptors (prostaglandin receptors expressed: hDP/Gqs5; hEP1; hEP2/Gqs5; hEP3A/Gqi5; hEP4/Gqs5; hFP; hIP; hTP), were cultured in 100 mm culture dishes in high-glucose DMEM medium containing 10% fetal bovine serum, 2 mM 1-glutamine, 250 μg/ml geneticin (G418) and 200 μg/ml hygromycin B as selection markers, and 100 units/ml penicillin G, 100 μg/ml streptomycin and 0.25 μg/ml amphotericin B.
(§3) (b) Calcium Signal Studies on The FLIPR™
(§4) Cells were seeded at a density of 5×10^4 cells per well in Biocoat® Poly-D-lysine-coated black-wall, clear-bottom 96-well plates (Becton-Dickinson) and allowed to attach overnight in an incubator at 37° C. Cells were then washed two times with HBSS-HEPES buffer (Hanks Balanced Salt Solution without bicarbonate and phenol red, 20 mM HEPES, pH 7.4) using a Denley Cellwash plate washer (Labsystems). After 45 minutes of dye-loading in the dark, using the calcium-sensitive dye Fluo-4 […] at a final concentration of 2 μM, plates were washed four times with HBSS-HEPES buffer to remove excess dye leaving 100 μl in each well. Plates were re-equilibrated to 37° C. for a few minutes.
(§5) Cells were excited with an Argon laser at 488 nm, and emission was measured through a 510-570 nm bandwidth emission filter (FLIPR™, Molecular Devices, Sunnyvale, Calif.). Drug solution was added in a 50 μl volume to each well to give the desired final concentration. The peak increase in fluorescence intensity was recorded for each well. On each plate, four wells each served as negative (HBSS-HEPES buffer) and positive controls (standard agonists: BW245C (hDP); PGE2 (hEP1; hEP2/Gqs5; hEP3A/Gqi5; hEP4/Gqs5); PGF2α (hFP); carbacyclin (hIP); U-46619 (hTP), depending on receptor). The peak fluorescence change in each drug-containing well was then expressed relative to the controls.
(§6) Compounds were tested in a high-throughput (HTS) or concentration-response (CoRe) format. In the HTS format, forty-four compounds per plate were examined in duplicates at a concentration of 10^−5 M. To generate concentration-response curves, four compounds per plate were tested in duplicates in a concentration range between 10^−5 and 10^−11 M. The duplicate values were averaged. In either, HTS or CoRe format each compound was tested on at least 3 separate plates using cells from different passages to give an n>3.

hEP3A/Gqi5 = molecular target: T2, hEP3A/Gqi5 (Homo sapiens, UniProt P43115); assay: hEP3A FLIPR calcium signal study; type: cell-based; settings: HEK-293(EBNA) cells expressing hEP3A/Gqi5; read-out: Other Receptors (EC50 in nM) hEP3A
T2 construct: expressed in transfected cells; host or cells: HEK-293(EBNA)
T2 sequence (P43115 1-390): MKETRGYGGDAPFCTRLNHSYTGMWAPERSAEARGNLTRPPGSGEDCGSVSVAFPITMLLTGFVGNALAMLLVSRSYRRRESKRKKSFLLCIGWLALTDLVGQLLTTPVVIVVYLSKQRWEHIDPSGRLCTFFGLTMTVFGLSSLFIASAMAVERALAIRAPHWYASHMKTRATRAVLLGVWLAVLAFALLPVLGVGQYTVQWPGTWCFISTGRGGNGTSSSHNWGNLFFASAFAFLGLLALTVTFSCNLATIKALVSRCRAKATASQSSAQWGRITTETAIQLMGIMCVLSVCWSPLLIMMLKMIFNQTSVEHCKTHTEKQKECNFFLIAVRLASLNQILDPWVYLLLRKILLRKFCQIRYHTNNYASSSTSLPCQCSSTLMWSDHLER
Procedure: as §1, §2, §3
(§7) Cells were seeded at a density of 5×10^4 cells per well in Biocoat® Poly-D-lysine-coated black-wall, clear-bottom 96-well plates (Becton-Dickinson) and allowed to attach overnight in an incubator at 37° C. Cells were then washed two times with HBSS-HEPES buffer (Hanks Balanced Salt Solution without bicarbonate and phenol red, 20 mM HEPES, pH 7.4) using a Denley Cellwash plate washer (Labsystems). […]
(§8) Cells were excited with an Argon laser at 488 nm, and emission was measured through a 510-570 nm bandwidth emission filter (FLIPR™, Molecular Devices, Sunnyvale, Calif.). […] The peak increase in fluorescence intensity was recorded for each well. […] The peak fluorescence change in each drug-containing well was then expressed relative to the controls. […]

hEP4/Gqs5 = molecular target: T3, hEP4/Gqs5 (Homo sapiens, UniProt P35408); assay: EP4 FLIPR calcium signal study; type: cell-based; settings: HEK-293(EBNA) cells expressing hEP4/Gqs5; unit inferred
T3 construct: expressed in transfected cells; host or cells: HEK-293(EBNA)
T3 sequence (P35408 whole entry): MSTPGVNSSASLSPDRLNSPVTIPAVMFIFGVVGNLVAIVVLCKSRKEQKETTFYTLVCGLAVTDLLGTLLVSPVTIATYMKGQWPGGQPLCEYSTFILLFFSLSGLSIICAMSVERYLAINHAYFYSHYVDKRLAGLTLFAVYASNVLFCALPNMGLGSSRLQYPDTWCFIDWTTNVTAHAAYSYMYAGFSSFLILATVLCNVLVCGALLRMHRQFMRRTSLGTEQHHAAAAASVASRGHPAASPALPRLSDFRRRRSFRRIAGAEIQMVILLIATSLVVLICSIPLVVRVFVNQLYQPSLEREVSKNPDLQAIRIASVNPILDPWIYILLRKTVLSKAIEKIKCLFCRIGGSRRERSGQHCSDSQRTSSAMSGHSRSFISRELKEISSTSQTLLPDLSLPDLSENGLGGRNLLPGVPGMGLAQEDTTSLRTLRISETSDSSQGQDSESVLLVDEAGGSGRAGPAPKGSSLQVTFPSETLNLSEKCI
Procedure: as §1, §2, §3, §7, §8

hDP/Gqs5 = molecular target: T4, hDP/Gqs5 (Homo sapiens, UniProt Q13258); assay: hDP FLIPR calcium signal study; type: cell-based; settings: HEK-293(EBNA) cells expressing hDP/Gqs5; read-out: Other Receptors (EC50 in nM) hDP
T4 construct: expressed in transfected cells; host or cells: HEK-293(EBNA)
T4 sequence (Q13258 1-359): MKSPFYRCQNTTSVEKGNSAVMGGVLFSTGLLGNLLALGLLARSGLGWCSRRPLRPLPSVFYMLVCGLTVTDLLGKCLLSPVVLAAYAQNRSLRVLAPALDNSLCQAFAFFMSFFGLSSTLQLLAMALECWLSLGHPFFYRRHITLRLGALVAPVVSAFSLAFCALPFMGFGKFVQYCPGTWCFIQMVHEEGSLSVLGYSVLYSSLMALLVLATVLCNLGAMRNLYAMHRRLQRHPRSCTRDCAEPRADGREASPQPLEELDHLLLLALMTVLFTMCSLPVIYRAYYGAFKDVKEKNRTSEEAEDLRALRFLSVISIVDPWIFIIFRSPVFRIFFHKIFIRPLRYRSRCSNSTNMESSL
Procedure: as §1, §2, §3, §4, §5, §6

EP2 [1] = molecular target: T5, EP2 (Homo sapiens, UniProt P43116); assay: EP2 cAMP assay; type: cell-based; settings: unit inferred
T5 sequence (P43116 whole entry): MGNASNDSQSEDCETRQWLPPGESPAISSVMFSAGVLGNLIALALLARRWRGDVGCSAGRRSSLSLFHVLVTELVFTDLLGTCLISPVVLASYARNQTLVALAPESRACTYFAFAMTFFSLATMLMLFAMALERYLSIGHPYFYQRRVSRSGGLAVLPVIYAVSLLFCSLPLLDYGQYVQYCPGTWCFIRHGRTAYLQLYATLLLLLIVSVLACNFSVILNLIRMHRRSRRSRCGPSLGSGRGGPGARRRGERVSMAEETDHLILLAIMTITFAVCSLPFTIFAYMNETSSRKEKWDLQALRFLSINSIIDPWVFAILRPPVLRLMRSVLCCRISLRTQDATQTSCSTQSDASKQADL

EP2 [2] = molecular target: T5, EP2; assay: EP2 competition binding (Ki) vs [3H]PGE2; design: expressed in transfected cells; host or cells: HEK 293; settings: HEK 293 cells stably expressing human EP2, [3H]PGE2; unit inferred
Procedure: Competition binding experiments were performed in a medium containing Hank's balanced salt solution, Hepes 20 mM, pH 7.3, membranes (˜60 μg protein) or 2×10^5 cells from HEK 293 cells stably expressing human EP2 receptors, [^3H]PGE2 (10 nM) and various concentrations of test compounds in a total volume of 300 μl. Reaction mixtures were incubated at 23° C. for 60 min, and were filtered over Whatman GF/B filters under vacuum. Filters were washed three times with 5 ml ice-cold buffer containing 50 mM Tris/HCl (pH 7.3). Non-specific binding was estimated in the presence of excess unlabeled PGE2 (10 μM). Binding data fitted to the binding model for a single class of binding sites, using nonlinear regression analysis. IC50 values thus obtained were converted to Ki using the equation of Ki=(IC50/(1+[L]/KD) where [L] represents PGE2 concentration (10 nM) and KD the dissociation constant for [^3H]PGE2 at human EP2 receptors (40 nM).
(§9) Cells Stably Expressing EP1, EP2, EP4 and FP Receptors
(§10) HEK-293 cells stably expressing the human or feline FP receptor, or EP1, EP2, or EP4 receptors were washed with TME buffer, scraped from the bottom of the flasks, and homogenized for 30 sec using a Brinkman PT 10/35 polytron. TME buffer was added to achieve a final 40 ml volume in the centrifuge tubes (the composition of TME is 100 mM TRIS base, 20 mM MgCl2, […]; 10N HCl is added to achieve a pH of 7.4).
(§11) The cell homogenate was centrifuged at 19000 r.p.m. for 20 min at 4° C. using a Beckman Ti-60 rotor. The resultant pellet was resuspended in TME buffer to give a final 1 mg/ml protein concentration, as determined by Biorad assay. Radioligand binding competition assays vs. [^3H-]17-phenyl PGF2α (5 nM) were performed in a […] volume for 60 min. Binding reactions were started by adding plasma membrane fraction. The reaction was terminated by the addition of 4 ml ice-cold TRIS-HCl buffer and rapid filtration through glass fiber GF/B filters using a Brandel cell harvester. The filters were washed 3 times with ice-cold buffer and oven dried for one hour.
(§12) [^3H-] PGE2 (specific activity 180 Ci mmol) was used as the radioligand for EP receptors. [^3H] 17-phenyl PGF2, was employed for FP receptor binding studies. Binding studies employing EP1, EP2, EP4 and FP receptors were performed in duplicate in at least three separate experiments. A 200 μl assay volume was used. Incubations were for 60 min at 25° C. and were terminated by the addition of 4 ml of ice-cold 50 mM TRIS-HCl, followed by rapid filtration through Whatman GF/B filters and three additional 4 ml washes in a cell harvester (Brandel). Competition studies were performed using a final concentration of 5 nM [^3H]-PGE2, or 5 nM [^3H] 17-phenyl PGF2, and non-specific binding determined with 10^−5M of unlabeled PGE2, or 17-phenyl PGF2α, according to receptor subtype studied.

EP4 receptors = molecular target: T6, EP4 receptors (Homo sapiens, UniProt P35408); assay: EP4 radioligand binding (Ki) vs [3H]PGE2; settings: unit inferred
T6 construct: expressed in transfected cells; host or cells: HEK-293
T6 sequence (P35408 whole entry): as the sequence (P35408 whole entry) above
Procedure: as §9, §10, §11, §12

T1 sequence (P43116 whole entry): as the sequence (P43116 whole entry) above

Row | Structure (SMILES) | EC50 (hEP2/Gqs5) [nM] | EC50 (hEP3A/Gqi5) [nM] | EC50 (hEP4/Gqs5) [nM] | EC50 (hDP/Gqs5) [nM] | EC50 (EP2 [1]) [nM] | Ki (EP2 [2]) [nM] | Ki (EP4 receptors) [nM]
1 | CCCC(O)c1ccc(N2C(=O)CC[C@@H]2COCc2ccc(C(=O)O)s2)cc1 (mixture of isomers) [Example 14, 5-{(R)-1-[4-(1-Hydroxy-butyl)-phenyl]-5-oxo-pyrrolidin-2-ylmethoxymethyl}-thiophene-2-carboxylic acid] | 426 | – | – | – | 27 | 1640 | > 10000
2 | CCCCC[C@@H](O)c1ccc(N2C(=O)CC[C@@H]2/C=C/Cc2ccc(C(=O)O)s2)cc1 (racemic) [Example 16, 5-((E and Z)-3-{(R)-1-[4-(1-Hydroxy-hexyl)-phenyl]-5-oxo-pyrrolidin-2-yl}-allyl)-thiophene-2-carboxylic acid] | 226 | – | – | – | 15 | 1380 | > 10000
3 | CCC(O)c1ccc(N2C(=O)CC[C@@H]2COCc2ccc(C(=O)O)s2)cc1 (mixture of isomers) [Example 15, 5-{(R)-1-[4-(1-Hydroxy-propyl)-phenyl]-5-oxo-pyrrolidin-2-ylmethoxymethyl}-thiophene-2-carboxylic acid] | 1810 | – | > 10000 | 7560 | 312 | 5730 | > 10000
4 | CCCCCC(O)c1ccc(N2C(=O)CC[C@@H]2COc2ccc(C(=O)O)cc2)cc1 (mixture of isomers) [Example 43, 4-{(R)-1-[4-(1-Hydroxy-hexyl)-phenyl]-5-oxo-pyrrolidin-2-ylmethoxy}-benzoic acid] | 7280 | – | – | – | – | 22700 | 8750
5 | CCCCCC(O)c1ccc(N2C(=O)CC[C@@H]2COCc2cccc(C(=O)O)c2)cc1 (mixture of isomers) [Example 11, 3-{(R)-1-[4-(1-Hydroxy-hexyl)-phenyl]-5-oxo-pyrrolidin-2-ylmethoxymethyl}-benzoic acid] | > 10000 | – | – | – | 517 | – | > 10000

The next compounds have a lower EC50 (hEP2/Gqs5) than those just listed; values first:

Row | EC50 (hEP2/Gqs5) [nM] | EC50 (hEP3A/Gqi5) [nM] | EC50 (hEP4/Gqs5) [nM] | EC50 (hDP/Gqs5) [nM] | EC50 (EP2 [1]) [nM] | Ki (EP2 [2]) [nM] | Ki (EP4 receptors) [nM] | Structure (SMILES)
6 | 212 | – | – | – | 8 | 387 | > 10000 | CCCCC(O)c1ccc(N2C(=O)CC[C@@H]2COCc2ccc(C(=O)O)s2)cc1 (mixture of isomers) [Example 12, 5-{(R)-1-[4-(1-Hydroxy-pentyl)-phenyl]-5-oxo-pyrrolidin-2-ylmethoxymethyl}-thiophene-2-carboxylic acid]
7 | 30 | 47 | > 10000 | 105 | – | – | – | CCCCCCC(O)c1ccc(N2C(=O)CC[C@@H]2CCCc2ccc(C(=O)O)s2)cc1 (mixture of isomers) [Example 36, 5-(3-{(S)-1-[4-(1-Hydroxy-heptyl)-phenyl]-5-oxo-pyrrolidin-2-yl}-propyl)-thiophene-2-carboxylic acid]
8 | 20 | – | – | 5760 | 1.5 | 190 | > 10000 | CCCCCCC(O)c1ccc(N2C(=O)CC[C@@H]2COCc2ccc(C(=O)O)s2)cc1 (mixture of isomers) [Example 13, 5-{(R)-1-[4-(1-Hydroxy-heptyl)-phenyl]-5-oxo-pyrrolidin-2-ylmethoxymethyl}-thiophene-2-carboxylic acid]
9 | 5 | 155 | – | 1230 | 0.55 | 23 | > 10000 | CCCCCC(O)c1ccc(N2C(=O)CC[C@@H]2CCCc2ccc(C(=O)O)s2)cc1 (mixture of isomers) [Example 17, 5-(3-{(S)-1-[4-(1-Hydroxy-hexyl)-phenyl]-5-oxo-pyrrolidin-2-yl}-propyl)-thiophene-2-carboxylic acid]

Reference: patent US7592364B2, “Substituted gamma lactams as therapeutic agents” (Allergan, Inc., priority 2006, dated 2009)
